Experimental data taken from patent US8557812B2, “Small molecule inhibitors of anti-apoptotic BCL-2 family members and the uses thereof” (The Regents of the University of Michigan, priority 2004, dated 2013).

Experiments:
[1] = Body weight of xenograft mice (Example 9); assay type: in vivo; conditions: doses as in Example 9
Description: To monitor toxicity, animal body weights were measured and plotted in FIG. 10.

[2] = system: PrEC (human normal prostate epithelial cells); assay: Caspase-3 activation in PrEC cells (flow cytometry); assay type: cell-based; conditions: 48 hours
Description: (§1) The cells were analyzed by flow cytometry in the red channel and the results are shown as percent of cells having active caspase-3 (FIG. 5).

PC-3 cells [3] = assay: Apoptosis by Annexin V-FITC staining and flow cytometry; assay type: cell-based, human; conditions: 2.5 μM, 45 hours
MDA-231 cells = assay: Cell survival with CDDP and TW-37 alone or in combination; assay type: cell-based, human; conditions: 0.2 μM or 0.3 μM TW-37, 42 hours
Text: CDDP is a DNA damaging agent and can effectively induce apoptosis in MDA-231 breasted cancer cells and is also a clinically used chemotherapeutic drug for cancer.

in vivo = conditions: female, Balb/c, mouse, iv
PC-3 cells [4] = assay: Caspase-3 activation in PC-3 cells (flow cytometry); assay type: cell-based, human; conditions: 5 μM, 48 hours
Description: as §1

[5] = system: LnCap, PC-3, DU145c, 2LMP and MCF-10A cell lines; assay: Inhibition of cell growth in human cancer cell lines (MTT); assay type: cell-based; conditions: 120 h, each of LnCap, 5 days
Description: The cells were then incubated at 37° C. with 5% CO2 for 5 days, followed by detection of cell viability with MTT. Untreated cells were used as 100% growth.

Bcl-2 = Bcl-2 (Homo sapiens, UniProt P10415); assay: Fluorescence polarization in vitro Bcl-2 binding assay
Description: Bcl-2 used in this assay is a recombinant His-fused soluble protein. […] Inc., Research Triangle Park, N.C.). […] The unlabeled Bid peptide is used as the positive control. The Ki values were calculated using our developed equation for FP assay (Nikolovska-Coleska et al., Anal. Biochem., 2004, in press). The program for calculating a Ki value is available free of charge via the Internet at http://sw16.im.med.umich.edu/software/calc_ki/.

PC-3 tumor = assay: PC-3 xenograft tumor growth, single agents (Example 8); assay type: in vivo, NCr-nu male nude mice
Description: TAXOTERE (TXT) and cisplatin (CDDP) were used as positive controls. For the PC-3 tumor model, 5×10^6 PC-3 cells were injected into the flanks of NCr-nu male nude mice on both sides. The quarter-MTD and half-MTD doses, i.e., 20 and 40 mg/kg, i.v. q.d.×5 for 3 weeks was tested.

Chain of Bcl-2 (P10415 92-205 limits assumed): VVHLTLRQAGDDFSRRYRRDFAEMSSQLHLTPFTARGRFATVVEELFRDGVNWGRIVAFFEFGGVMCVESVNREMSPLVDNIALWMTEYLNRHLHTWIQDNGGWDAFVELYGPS

**Q.** Which results are given for CC(C)c1ccccc1Cc1cc(C(=O)Nc2ccc(S(=O)(=O)c3ccccc3C(C)(C)C)cc2)c(O)c(O)c1O [TW-37, N-[(2-tert-Butyl-benzenesulfonyl)-phenyl]-2,3,4-trihydroxy-5-(2-isopropyl-benyl)-benzamide]?
**A.** body weight during treatment [1]: no obvious body weight loss; effect on caspase-3 activation in normal prostate epithelial cells [2]: no effect; apoptotic cells (PC-3 cells [3]): about 35%; effect on CDDP induced cell death (MDA-231 cells): enhanced the CDDP induced cell death; MTD at 3 weeks (in vivo): 80 mg/kg; cells having activated caspase-3 (PC-3 cells [4]): about 60%; T-C (days) tumor growth delay (PC-3 xenograft; TW-37 40 mg/kg): 37 days; activity under the NCI criteria (T/C<42%) (PC-3 xenograft; TW-37 40 mg/kg): significantly active; T/C (%) tumor growth inhibition (PC-3 xenograft; TW-37 40 mg/kg i.v. q.d.5×3 weeks): 34.5%; tumor growth compared to control (PC-3 xenograft; TW-37 40 mg/kg, p<0.001, two-way ANOVA, n=10): significantly inhibited tumor growth; Complete tumor regression (PC-3 xenograft; TW-37 40 mg/kg, tumors regressed/total): 0/10; IC50 [5]: 1000 to 5000 nM; IC50 (Bcl-2): ≤ 1000 nM; potency on tumor growth compared with TAXOTERE (PC-3 tumor; 40 mg/kg TW-37 vs TXT 7.5 mg/kg i.v. once a week): as potent as TAXOTERE; inhibition of tumor growth in vivo (PC-3 tumor; 20 and 40 mg/kg i.v. q.d.5×3 weeks): significantly inhibiting tumor growth in vivo
